Measurements as given in PMC10445290, “Enantiomeric Fractions Reveal Differences in the Atropselective Disposition of 2,2′,3,5′,6-Pentachlorobiphenyl (PCB 95) in Wildtype, Cyp2abfgs-Null, and CYP2A6-Humanized Mice” (Chemical Research in Toxicology, 2023).
Like-named read-outs stand apart in the source and are kept apart here.

Experiment: Levels of PCB 95 and its hydroxylated metabolites in adipose, blood, brain and liver 24 h after a single oral dose (GC-MS/MS)
Assay type: in vivo, mice
Details: 1 mg/kg, single oral PCB 95 1.0 mg/kg, mean ± SD; for concentration at 24 h: mouse, po
Experimental: Adult male and female wild-type (WT) C57BL/6 mice, KO, and KI mice (4 months old) were exposed to racemic PCB 95. Mice were randomly assigned to exposure groups and received a single oral dose of PCB 95 (1.0 mg/kg) in stripped corn oil (10 mL/kg; lot# A0395699; cat# 801-03-7; Fisher Scientific) via gavage (5–7 mice per group). Control animals received corn oil alone (1–3 mice per group) to assess the potential background contamination with PCB 95. Animals were euthanized 24 h after PCB 95 exposure. Blood was collected from the heart and placed in pre-weighed glass vials with 80 μL of ethylenediaminetetraacetic acid solution (EDTA, 7.5%, w/w). The amount of blood in each vial was determined by weight prior to sample extraction. Adipose, brain, and liver tissues were excised from each animal and individually wrapped in aluminum foil. Samples were stored at −80 °C in separate plastic bags and shipped on dry ice to the University of Iowa for analysis.
PCB 95 and its hydroxylated metabolites were extracted from adipose (0.06 ± 0.01 g), brain (0.19 ± 0.03 g) and liver tissues (0.49 ± 0.07 g) by pressurized liquid extraction (PLE) with a Dionex ASE200 system (Dionex, Sunnyvale, CA, USA).[45] Tissues were homogenized with 2 g of pre-cleaned diatomaceous earth (Thermo Fisher Scientific, Pittsburgh, PA, USA) and placed in extraction cells loaded with 10 g of pre-extracted Florisil (60–100 mesh, Fisher Scientific, Pittsburgh, PA, USA). Tissue samples were then spiked with recovery standards [50 ng of PCB 117 in 50 μL of isooctane and 50 ng of 4′-159 (2′,3,3′,5,5′,6′-hexachlorobiphenyl-4-ol) in 50 μL of methanol]. For ongoing precision recovery (OPR) samples; recovery standard, internal standard, PCB 95, and its metabolites (50 ng each) were spiked to the method blank (DE only) and tissues from control animals. Cells were extracted with hexane–dichloromethane–methanol (48:43:9, v/v/v) at 100 °C and 1500 psi (10 MPa), with preheat equilibration for 6 min, 60% of cell flush volume, and 1 static cycle of 5 min. The extracts were concentrated to approximately 1 mL with a TurboVap II (Biotage, LLC, NC, USA) and transferred to new glass tubes with 1 mL of hexane. The solvent was evaporated to near dryness under a gentle stream of nitrogen, and extracts were redissolved in 1 mL of hexane.
PCB 95 and its hydroxylated metabolites were extracted from whole blood (0.45 ± 0.13 g) using a published liquid–liquid extraction procedure.[29] Briefly, blood samples were thawed, and 3 mL of aqueous 1% KCl solution was added to each sample. Recovery standards (50 ng of PCB 117 in 50 μL of isooctane and 50 ng of 4′-159 in 50 μL of methanol) were spiked to all samples, including OPR samples, before extraction. Subsequently, 1 mL of 6 M HCl, 5 mL of 2-propanol, and 5 mL of 1:1 hexane–MTBE mixture (v/v) were added to the blood samples. The samples were inverted for 5 min and centrifuged at 1690g for 5 min to facilitate the phase separation. Next, the organic phases were transferred to new glass tubes, and the aqueous phases were re-extracted with 3 mL of hexane. Next, three mL of aqueous 1% KCl were added to the combined organic extracts, and samples were inverted and centrifuged as described above. The organic phase was transferred to a new tube, and the aqueous phase was re-extracted with 3 mL of hexane. The combined organic extracts were evaporated to near dryness using a Savant SpeedVac SPD210 (Thermo Scientific, Waltham, MA, US), and each sample was reconstituted with 0.5 mL of hexane.
Five drops of methanol and 0.5 mL of diazomethane (CH2N2; about 0.1 mmol) in diethyl ether were added to the tissue or blood extracts to derivatize the OH-PCBs.[45] Diazomethane rapidly converts the phenolic hydroxyl groups of OH-PCBs to methoxy groups (i.e., −OH → −OCH3). All samples were stored at 4 °C for approximately 16 h. Excess diazomethane evaporated under a gentle stream of nitrogen in a fume hood, followed by adding 0.5 mL of hexane. […]

[1] = female, C57BL/6 (wild-type), adipose, FWT, female wildtype mice, read-out: Levels in adipose
[2] = female, C57BL/6 (wild-type), liver, FWT, female wildtype mice, read-out: Levels in liver
[3] = female, C57BL/6 (wild-type), whole blood, FWT, female wildtype mice, read-out: Levels in blood
[4] = female, CYP2A6-humanized (KI), adipose, FKI, female CYP2A6-humanized mice, read-out: Levels in adipose
[5] = female, CYP2A6-humanized (KI), liver, FKI, female CYP2A6-humanized mice, read-out: Levels in liver
[6] = female, CYP2A6-humanized (KI), whole blood, FKI, female CYP2A6-humanized mice, read-out: Levels in blood
[7] = female, Cyp2abfgs-null (KO), adipose, FKO, female Cyp2abfgs-null mice, read-out: Levels in adipose
[8] = female, Cyp2abfgs-null (KO), liver, FKO, female Cyp2abfgs-null mice, read-out: Levels in liver
[9] = female, Cyp2abfgs-null (KO), whole blood, FKO, female Cyp2abfgs-null mice, read-out: Levels in blood
[10] = male, C57BL/6 (wild-type), adipose, MWT, male wildtype mice, read-out: Levels in adipose
[11] = male, C57BL/6 (wild-type), liver, MWT, male wildtype mice, read-out: Levels in liver
[12] = male, C57BL/6 (wild-type), whole blood, MWT, male wildtype mice, read-out: Levels in blood
[13] = male, CYP2A6-humanized (KI), adipose, MKI, male CYP2A6-humanized mice, read-out: Levels in adipose
[14] = male, CYP2A6-humanized (KI), liver, MKI, male CYP2A6-humanized mice, read-out: Levels in liver
[15] = male, CYP2A6-humanized (KI), whole blood, MKI, male CYP2A6-humanized mice, read-out: Levels in blood
[16] = male, Cyp2abfgs-null (KO), adipose, MKO, male Cyp2abfgs-null mice, read-out: Levels in adipose
[17] = male, Cyp2abfgs-null (KO), liver, MKO, male Cyp2abfgs-null mice, read-out: Levels in liver
[18] = male, Cyp2abfgs-null (KO), whole blood, MKO, male Cyp2abfgs-null mice, read-out: Levels in blood
[19] = female, C57BL/6 (wild-type), brain, FWT, female wildtype mice, read-out: Levels in brain

| SMILES | concentration at 24 h [1] [ng/g] | concentration at 24 h [2] [ng/g] | concentration at 24 h [3] [ng/g] | concentration at 24 h [4] [ng/g] | concentration at 24 h [5] [ng/g] | concentration at 24 h [6] [ng/g] | concentration at 24 h [7] [ng/g] | concentration at 24 h [8] [ng/g] | concentration at 24 h [9] [ng/g] | concentration at 24 h [10] [ng/g] | concentration at 24 h [11] [ng/g] | concentration at 24 h [12] [ng/g] | concentration at 24 h [13] [ng/g] | concentration at 24 h [14] [ng/g] | concentration at 24 h [15] [ng/g] | concentration at 24 h [16] [ng/g] | concentration at 24 h [17] [ng/g] | concentration at 24 h [18] [ng/g] | concentration at 24 h [19] [ng/g] | further results |
| --- | --- | --- | --- | --- | --- | --- | --- | --- | --- | --- | --- | --- | --- | --- | --- | --- | --- | --- | --- | --- |
| Oc1c(O)c(Cl)c(-c2cc(Cl)ccc2Cl)c(Cl)c1Cl [4,5-95, 2,2',3,5',6-pentachlorobiphenyl-4,5-diol] | 0.9 ± 0.2 | 2.2 ± 0.9 | 5.2 ± 1.9 | 1 ± 0.6 | 1.7 ± 0.3 | 5.2 ± 4.8 | 1.6 | 1.2 ± 0.7 | 1.4 ± 0.7 | 0.9 ± 0.2 | 3.4 ± 1.2 | 9.1 ± 2.6 | 0.7 ± 0.2 | 1.7 ± 0.8 | 3.6 ± 1.3 | 1.9 ± 0.8 | 2.8 ± 1.6 | 5.3 ± 3.8 |  |  |
| Oc1cc(Cl)c(Cl)c(-c2cc(Cl)ccc2Cl)c1Cl [5-95, 2,2',3,5',6-pentachlorobiphenyl-5-ol] | 1.3 ± 1.1 | 3.8 ± 1.6 | 0.9 ± 0.6 | 1.1 ± 0.4 | 5.5 ± 3.1 | 1.9 ± 1.6 | 1 ± 0.4 | 6.2 ± 1.1 | 0.7 ± 0.3 | 1.8 ± 1 | 3.3 ± 1.6 | 1.1 ± 0.3 | 0.8 ± 0.5 | 3.3 ± 2.1 | 0.6 ± 0.3 | 3.5 ± 4.8 | 3.7 ± 1.6 | 0.7 ± 0.3 | 0.25 ± 0.02 |  |
| Oc1c(Cl)cc(Cl)c(-c2cc(Cl)ccc2Cl)c1Cl [3-103, 2,2',4,5',6-pentachlorobiphenyl-3-ol] | 0.7 | 1.2 ± 0.4 | 1 ± 0.5 |  | 1 ± 0.4 | 1.1 ± 1.2 |  | 1.8 ± 0.4 | 0.8 ± 0.3 |  | 0.7 ± 0.3 | 0.6 ± 0.2 |  | 0.6 ± 0.2 | 0.4 ± 0.1 | 1.5 ± 0.7 | 1 ± 0.4 | 0.5 ± 0.1 |  |  |
| Oc1cc(Cl)c(-c2c(Cl)ccc(Cl)c2Cl)cc1Cl [4'-95] | 1.4 ± 0.6 | 3.7 ± 1.8 | 2.2 ± 1 | 1.1 ± 0.3 | 4.5 ± 2.6 | 3.4 ± 2.5 | 1.5 ± 0.4 | 8.5 ± 3.9 | 2.2 ± 1.2 | 2.1 ± 0.8 | 5.7 ± 2.8 | 3.5 ± 1.1 | 1.1 ± 0.2 | 3.8 ± 2.1 | 1.3 ± 0.7 | 2.5 ± 1.7 | 7.7 ± 3.6 | 2.8 ± 0.9 | 0.3 | Levels in liver (FKO, female Cyp2abfgs-null mice): 8.5 ng/g tissue; concentration at 24 h (male, Cyp2abfgs-null (KO), brain, MKO, male Cyp2abfgs-null mice, read-out: Levels in brain): 0.2 ng/g |
| Oc1cc(Cl)c(-c2cc(Cl)ccc2Cl)c(Cl)c1Cl [4-95, 2,2',3,5',6-pentachlorobiphenyl-4-ol] | 0.4 ± 0.1 | 1 ± 0.6 | 1.5 ± 0.5 |  | 0.4 ± 0.1 | 1 ± 0.8 |  | 0.4 ± 0.3 | 0.4 ± 0.3 | 0.5 ± 0.3 | 2 ± 0.8 | 3.2 ± 1.1 | 0.3 | 0.8 ± 0.5 | 1.1 ± 0.6 | 0.4 ± 0.1 | 1.1 ± 0.9 | 1.5 ± 0.8 |  | Levels in liver (FKI, female CYP2A6-humanized mice): 0.4 ng/g tissue |
